Patent US20080131432A1, “Method of treating the chemotoxic effects of chemotherapeutic drugs on brain tissue” (University of Kentucky Research Foundation, priority 2005, published 2008)
Entries after “also recorded” stand apart in the source; their conditions may differ.

Assays:
TNF α = TNF α levels in serum (mouse TNF-α ELISA); type: in vivo
Procedure: Mice were treated with 20 mg/kg ADR or saline as control. Blood samples were collected at 1, 3, 6, 9, 24 hours and allowed to clot at 2-8° C. overnight. Serum samples were used to measure TNF α levels, according to the mouse enzyme-linked immunosorbent assay following the manufacturers' instructions (mouse TNF-α/TNFSF1A immunoassay, R&D Systems, Minneapolis, MN). The TNF α concentration in the sample was calculated from a recombinant mouse TNF α standard curve. The minimum detection limit is typically less than 5.1 pg/mL.
8-week-old male B6C3 mice (25-30 g) were kept under standard conditions. Mice were injected with a single intraperitoneal (i.p.) treatment with adriamycin (doxorubicin hydrochloride, 20 mg/kg), TNF-α, anti-mouse TNF-antibody (40 ng/kg), dipropylenetriamine NONOate (DPTA NONOate, […]), lipopolysaccharide (LPS 1 mg/kg), NG-nitro-L-arginine-methyl esther (L-NAME, 10 mg/kg) or pre-immune IgG.
Mice were treated with 20 mg/kg ADR, TNF-α, anti-mouse TNF-antibody, dipropylenetriamine NONOate, lipopolysaccharide, NG-nitro-L-arginine-methyl esther or pre-immune IgG, as well as saline as control. Blood samples were collected at 3 hours after ADR treatment and allowed to clot at 2-8° C. overnight. Serum samples were used to measure TNF levels, according to the mouse enzyme-linked immunosorbent assay following the manufacturers' instructions (mouse TNF-α/TNFSF1A immunoassay, R&D Systems, Minneapolis, Minn.). The TNF concentration in the sample was calculated from a recombinant mouse TNF standard curve. The minimum detection limit is typically less than 5.1 pg/mL.

[1] = test system: mitochondrial respiration complex I; assay: Brain mitochondrial respiration, complex I (pyruvate + malate), respiration control ratio; details: iNOSKO mice, 3 hours after treatment
Procedure: Mice were perfused via cardiac puncture with cold mitochondrial isolation buffer, the brain promptly removed, the cerebellum dissected away, and mitochondria immediately isolated from the freshly brain by a modification of the method described by Mattiazzi et al. (2002). Brain mitochondria were isolated in cold mitochondrial isolation buffer, containing 0.07 M sucrose, 0.22 M mannitol, 20 mM HEPES, 1 mM EGTA, and 1% bovine serum albumin, pH 7.2. Tissues were homogenized with a Dounce homogenizer and centrifuged at 1,500×g at 4° C. for 5 minutes before transferring the supernatant. The pellets were resuspended and centrifuged at 1,500×g at 4° C. for 5 minutes. The supernatants were combined and centrifuged at 13,500×g at 4° C. for 10 minutes. Mitochondrial pellets were washed twice and finally resuspended in 50-100 μL cold isolation buffer. Protein concentration of isolated mitochondria was determined by the Bradford assay (Bradford, 1976). The final protein concentration was 20-40 mg/ml.
Mitochondrial respiration was determined using Clark-type polarographic oxygen sensors (Hansatech Instruments, Kings Lynn, Norfolk, UK) to measure the rate of oxygen consumption. Freshly isolated mitochondria were suspended in respiration buffer at a concentration of 0.5 mg mitochondrial protein per mL of respiration buffer, which consists of 0.25 M sucrose, 50 mM HEPES, 1 mM EGTA, 10 mM KH2PO4, and 2 mM MgCl2, pH 7.4. Oxygen consumption was measured with either pyruvate (10 mM) plus malate (10 mM) or succinate (10 mM) as substrates for respiration from complex I or complex II in the absence of exogenous ADP (state II) and after addition of 300 mM ADP (state III respiration). Rotenone (5 μM) was added to the reaction to inhibit respiration from complex I when succinate was used as the substrate. […] FCCP (1 μM), an uncoupling agent, was added as a control of respiration. Respiration control ratios (RCR) were calculated as the ratios of state III and state II respiration as described previously by Estabrook (1967). The unit for state II rate and state III rate is nmole/min/mg protein.
Mice were perfused via cardiac puncture with cold mitochondrial isolation buffer, the brain promptly removed, the cerebellum dissected away, and mitochondria immediately isolated from the freshly brain by a modification of the method described by Mattiazzi et al. (2002). Brain mitochondria were isolated in cold mitochondrial isolation buffer, containing 0.07 M sucrose, 0.22 M mannitol, 20 mM HEPES, 1 mM EGTA, and 1% bovine serum albumin, pH 7.2. Tissues were homogenized with a Dounce homogenizer and centrifuged at 1,500×g at 4° C. for 3 minutes before transferring the supernatant fluid. The pellets were resuspended and centrifuged at 1,500×g at 4° C. for 3 minutes. The supernatant fluids were combined and centrifuged at 1,500×g at 4° C. for 3 minutes. These supernatant fluids were then centrifuged at 13,500×g at 4° C. for 10 minutes. Mitochondrial pellets were washed twice and finally resuspended in 50-100 μL cold isolation buffer. Protein concentration of isolated mitochondria was determined by the Bradford assay (Bradford, 1976).
Mitochondrial respiration was determined using Clark-type polarographic oxygen sensors (Hansatech Instruments, UK) to measure the rate of oxygen consumption. Freshly-isolated mitochondria were suspended in respiration buffer at a concentration of 0.5 mg mitochondrial protein/mL respiration buffer, which consisted of 0.25 M sucrose, 50 mM HEPES, 1 mM EGTA, 10 mM KH2PO4, 2 mM MgCl2 and 0.2% BSA, pH 7.4. Oxygen consumption was measured with either pyruvate (10 mM) or pyruvate plus malate (10 mM) as substrates for respiration from complex I, in the absence of exogenous ADP (state II), and after addition of 300 mM ADP (state III respiration). […] FCCP (1 μM), an uncoupling agent, was added as a control respiration. Respiration control ratios (RCR) were calculated as the ratios of state III and state II respiration.

MnSOD = details: wild-type mice
iNOS mRNA = iNOS mRNA expression in brain tissues (RT-PCR); type: in vivo, mouse; details: wild-type mice, 3 hours after treatment, vs saline controls
Procedure: At 3 hours after treatment, mice were anesthetized and perfused via cardiac puncture with 0.1 M PBS, pH 7.4. The MRNA was isolated using the Micro-FastTrack 2.0 Kit (Invitrogen, Groningen, Netherlands) according to the manufacturer's instructions. The purified MRNA (5 μg) was subjected to reverse-transcription into first strand cDNA in each 20 μL of reaction mixture using the SuperScript III First-Strand Synthesis System for RT-PCR (Invitrogen) according to the manufacturer's instruction. A 25 μL PCR reaction contained 5 μL first strand cDNA, 0.1 U Taq DNA polymerase (Invitrogen), 10 mM 10×PCR buffer, 1.5 mM MgCl2, 2.5 mM dNTP and 10 pmol of each specific primer. PCR samples were subjected to the following conditions: 35 cycles for iNOS (94° C.: 1 minute; 65° C.: 1 minute; 72° C.: 1 minute), 32 cycles for β-actin (94° C.: […]; 55° C.: 30 s; 72° C.: 10 minutes), on a thermocycle (Perkin-Elmer). The primers with the target gene sequences were synthesized by Invitrogen. The primer sequence iNOS was 5′-CTGATGGTCAAGATCCAG-A-GGTCT-3′ (forward) and 5′-[…]-CTCT-3′(reverse), and the primer for β-actin was 5′-TGTTAC-CAACTGGGACGACA-3′ (forward) and 5′-CTGGGTCATCTT-TTCACCGT-3′ (reverse). After amplification, PCR products were subjected to 1% agarose gel electrophoresis, and visualized by ethidium bromide staining. The relative density of bands was analyzed under ultraviolet light (Bio-Rad). Experiments were repeated three times for reproducibility.

## NCCCN(CCCN)/[N+]([O-])=N/O [DPTA NONOate, dipropylenetriamine NONOate]
TNF α; iNOSKO mice, 3 hours after treatment
  TNF-α level in serum (circulating TNF-α): did not lead to changes; also recorded: had no effect
[1]
  Brain mitochondrial respiration complex I (RCR): significantly lowered; also recorded: causes mitochondrial dysfunction

## COC(=O)[C@@H](N)CCCNC(=N)N[N+](=O)[O-] [L-NAME, NG-nitro-L-arginine-methyl esther]
MnSOD; L-NAME 10 mg/kg i.p.
  MnSOD activity in brain vs saline- or ADR-treated mice: led to increased MnSOD activity
MnSOD; L-NAME with ADR
  Effect on ADR-induced MnSOD inactivation: prevented MnSOD inactivation

## TNF-α
iNOS mRNA
  iNOS mRNA levels in brain tissues: significantly increased
TNF α; wild-type mice, 3 hours after single i.p. treatment, vs saline control
  TNF α level in serum (circulating TNF α): increased

## lipopolysaccharide [LPS]
iNOS mRNA
  iNOS mRNA levels in brain tissues: significantly increased
